From patent US20020160990A1, “PHYTOSTEROL AND/OR PHYTOSTANOL DERIVATIVES” (priority 1998, published 2002)
Where two headings read alike, the source gives them in different places. Marks after values point to notes of the source that are not given here.

Assays:
[1] = Solubility in Swiss rapeseed oil at room temperature by incremental addition of oil; type: physicochemical
Source text: The minimum starting ratio was about 1:1, and trials were discontinued at above 10:1.

[2] = system: male Fisher rats; assay: Effects of phytosterol esters on plasma triglycerides in rats on high fat diet; type: in vivo, rat; conditions: for plasma triglycerides, Week 0 Means ± SD: Week 0 (pretreatment baseline), high fat diet, n=6; for plasma triglycerides, Week 2 Means ± SD: Week 2 of 2% (wt/wt) lipid in high fat diet; for plasma triglycerides, % change from pretreatment, Week 2: Week 2 vs week 0; for plasma triglycerides, Week 4 Means ± SD: Week 4 of 2% (wt/wt) lipid in high fat diet; for plasma triglycerides, % change from pretreatment, Week 4: Week 4 vs week 0
Source text: (§1) Thirty male Fisher rats, weighing 177±14 g, were maintained on a high fat diet (Table 1) during the 2 weeks preceding treatment. They were then randomly divided into five experimental groups consisting of 6 animals each. The control group (Group 1) remained on the high fat diet used during the 2-week pretreatment period. For the other experimental diets, in order to have isocaloric diets and an equal amount of fat in all the experimental diets, 2% (wt/wt) of the fat content of the control diet (1% coconut oil and 1% corn oil) was replaced by 2% (wt/wt) of the following lipids:
(§2) The rats were allowed free access to water and feed, and they were maintained on a 12-hour light-dark cycle. The feed in the cages was replaced daily, all unconsumed material discarded and food intake measured. Blood samples (1 ml) were taken by retroorbital puncture at the start of the experimental period (week 0) and after 2 weeks of treatment (week 2). After 4 weeks, the animals were sacrificed by withdrawing blood from the vena cava under Isoflurane anesthesia. Blood was collected into tubes containing […] as an anticoagulant.
(§3) Plasma was prepared from the heparinized blood by immediate centrifugation at 1600 g for 10 minutes at 4° C. Assays of plasma cholesterol, triglycerides, and HDL-cholesterol (precipitation method) were determined enzymatically on a COBASFARA analyzer (Roche Diagnostica, Switzerland). Non-HDL cholesterol was calculated by difference. The fatty acid composition of the diets was analyzed by gas chromatography.
(§4) All data are expressed as means±SD (standard deviation) for animals in each diet group. The mean differences between dietary groups were analyzed by one-way analysis of covariance (ANCOVA) with subsequent Dunnet's test for multiple comparison against a control group (Group 1 and/or Group 2). The covariate adjusted for was the value of the corresponding parameter at the start of the treatment period (week 0). All tests were performed at the 5%-level and 95%-confidence intervals were calculated.

[3] = system: male Fisher rats; assay: Effects of phytosterol esters on plasma total cholesterol in rats on high fat diet; type: in vivo, rat; conditions: for plasma total cholesterol, Week 0 Means ± SD: Week 0 (pretreatment baseline), high fat diet, n=6; for plasma total cholesterol, Week 2 Means ± SD: Week 2 of 2% (wt/wt) lipid in high fat diet; for plasma total cholesterol, % change from pretreatment, Week 2: Week 2 vs week 0; for plasma total cholesterol, Week 4 Means ± SD: Week 4 of 2% (wt/wt) lipid in high fat diet; for plasma total cholesterol, % change from pretreatment, Week 4: Week 4 vs week 0
Source text: as §1, §2, §3, §4

[4] = system: male Fisher rats; assay: Effects of phytosterol esters on lipoproteins (HDL and non-HDL cholesterol) in rats on high fat diet; type: in vivo, rat; conditions: time point not given; for Non HDL cholesterol Means: calculated by difference; for HDL Cholesterol Means: precipitation method
Source text: as §1, §2, §3, §4

[5] = Swiss rapeseed oil, room temperature
[6] = Swiss rapeseed oil, room temperature, minimum starting ratio about 1:1, discontinued above 10:1

Q: Which “Solubility (in words)” value [1, 5] does the source give for `CC/C=C\C/C=C\C/C=C\C/C=C\C/C=C\CCCC(=O)OCC` [EPA ethyl ester 90%, EPA ethyl ester] here?
A: miscible

Q: And the “Solubility g oil/g material” value [1, 6]?
A: >1 g oil/g material

Q: What does the source list for `CCC=CCC=CCC=CCC=CCC=CCC=CCCC(=O)OC1CC[C@@]2(C)C(CC[C@H]3[C@@H]4CC[C@H]([C@H](C)CC[C@@H](CC)C(C)C)[C@@]4(C)CC[C@@H]32)C1` (some centres unmarked) [Group 3, sitostanol-DHA ester]?
A: plasma triglycerides, Week 0 Means ± SD [2]: 1.25 ± 0.26; plasma triglycerides, Week 2 Means ± SD [2]: 0.83 ± 0.13^b; plasma triglycerides, % change from pretreatment, Week 2 [2]: −34%; plasma triglycerides, Week 4 Means ± SD [2]: 0.74 ± 0.15^b,c; plasma triglycerides, % change from pretreatment, Week 4 [2]: −41%; plasma total cholesterol, Week 0 Means ± SD [3]: 2.90 ± 0.58; plasma total cholesterol, Week 2 Means ± SD [3]: 1.79 ± 0.37^b; plasma total cholesterol, % change from pretreatment, Week 2 [3]: −38%; plasma total cholesterol, Week 4 Means ± SD [3]: 1.23 ± 0.26^b; plasma total cholesterol, % change from pretreatment, Week 4 [3]: −58%; Non HDL cholesterol Means [4]: 0.75 ± 0.21^a; HDL Cholesterol Means [4]: 0.49 ± 0.10^b

Q: Which “plasma triglycerides, Week 0 Means ± SD” value [2] does the source give for `CC/C=C\C/C=C\C/C=C\C/C=C\C/C=C\CCCC(=O)O[C@H]1CC[C@@]2(C)C(=CC[C@H]3[C@@H]4CC[C@H]([C@H](C)/C=C/[C@@H](CC)C(C)C)[C@@]4(C)CC[C@@H]32)C1` [Group 4, stigmasterol-EPA ester] here?
A: 0.98 ± 0.15

Q: And the “plasma triglycerides, Week 2 Means ± SD” value [2]?
A: 0.81 ± 0.19^b

Q: What about the “plasma triglycerides, % change from pretreatment, Week 2” value [2] of the same compound?
A: −17%

Q: What about the “plasma triglycerides, Week 4 Means ± SD” value [2] of the same compound?
A: 0.83 ± 0.13^b,c

Q: And the “plasma triglycerides, % change from pretreatment, Week 4” value [2]?
A: −15%

Q: What about the “plasma total cholesterol, Week 0 Means ± SD” value [3] of the same compound?
A: 2.97 ± 0.49

Q: And the “plasma total cholesterol, Week 2 Means ± SD” value [3]?
A: 1.94 ± 0.12^b

Q: What about the “plasma total cholesterol, % change from pretreatment, Week 2” value [3] of the same compound?
A: −35%

Q: And the “plasma total cholesterol, Week 4 Means ± SD” value [3]?
A: 1.61 ± 0.25^b

Q: And the “plasma total cholesterol, % change from pretreatment, Week 4” value [3]?
A: −46%

Q: What about the “Non HDL cholesterol Means” value [4] of the same compound?
A: 1.07 ± 0.26^a,b

Q: What about the “HDL Cholesterol Means” value [4] of the same compound?
A: 0.53 ± 0.08

Q: For `CC/C=C\C/C=C\C/C=C\C/C=C\C/C=C\C/C=C\CCC(=O)OCC` [docosahexaenoic acid ethyl ester 90%, docosahexaenoic acid ethyl ester], which “Solubility (in words)” value [1] is on record?
A: miscible

Q: And the “Solubility g oil/g material” value [1]?
A: >1 g oil/g material

Q: Which results are given for `CC[C@H](CC[C@@H](C)[C@H]1CC[C@H]2[C@@H]3CC[C@H]4C[C@@H](O)CC[C@]4(C)[C@H]3CC[C@]12C)C(C)C` [stigmastanol]?
A: Solubility (in words) [1, 5]: insoluble; Solubility g oil/g material [1, 6]: >10 g oil/g material

Q: Which results are given for `CC/C=C\C/C=C\C/C=C\C/C=C\C/C=C\C/C=C\CCC(=O)O[C@H]1CC[C@@]2(C)C(=CC[C@H]3[C@@H]4CC[C@H]([C@H](C)/C=C/[C@@H](CC)C(C)C)[C@@]4(C)CC[C@@H]32)C1` [stigmasterol docosahexaenoate]?
A: Solubility (in words) [1, 5]: miscible; Solubility g oil/g material [1, 6]: >1 g oil/g material

Q: Which “Solubility (in words)” value [1, 5] does the source give for `CCC=CCC=CCC=CCC=CCC=CCCCC(=O)OC1CCC2(C)C(=CCC3C2CCC2(C)C(C(C)C=CC(CC)C(C)C)CCC32)C1` (centres unmarked) [stigmasterol eicosapentenoate, Stigmasterol eicosapenatenoate] here?
A: miscible

Q: What about the “Solubility g oil/g material” value [1, 6] of the same compound?
A: >1 g oil/g material

Q: What does the source list for `CC[C@H](/C=C/[C@@H](C)[C@H]1CC[C@H]2[C@@H]3CC=C4C[C@@H](O)CC[C@]4(C)[C@H]3CC[C@]12C)C(C)C` [stigmasterol]?
A: Solubility (in words) [1, 5]: insoluble; Solubility g oil/g material [1, 6]: >10 g oil/g material

Q: What does the source list for Stigmastanol docosahexaenoate?
A: Solubility (in words) [1, 5]: miscible; Solubility g oil/g material [1, 6]: >1 g oil/g material
